Laboratory results: PMC2364086, “Metabolism and growth inhibition of four retinoids in head and neck squamous normal and malignant cells” (British Journal of Cancer, 2001)

Legend:
oral leukoplakia = conditions: ref Koch, 1978; cited from earlier work
UM-SCC-35 = assay: Retinoid metabolism / turnover rate, HPLC; conditions: for Metabolites Pellet: UM-SCC-35 cell pellet
Source text: (§1) Retinoic acid is an active metabolite of retinol (ROL, vitamin A) that plays an important role in growth and differentiation of a variety of cell types (Gudas et al, 1994). […] This is a whitish and reddish plaque in the epithe- lial lining in the oral cavity that have a relatively high risk to become malignant. […] One impor- tant route of ATRA metabolism consists of hydroxylation at posi- tion 4 of the cyclohexenyl ring to form 4-hydroxy-RA, which is readily oxidized to 4-oxo-RA. Other metabolic pathways of ATRA include isomerization, decarboxylation and glucuronidation processes (Rockley et al, 1980; Roberts et al, 1980; Sass et al, 1994). In vitro, 4-hydroxylation of ATRA is mediated by a cytochrome P450 (CYP)-dependent mono-oxogenase system that requires NAPDH and oxygen (Roberts et al, 1980). The present study was undertaken to investigate to what extent a panel of retinoids, including 13cRA, is able to inhibit growth of HNSCC cells and cultures of normal oral keratinocytes (OKC). […] After binding of retinoids to retinoic acid receptors (RARs and RXRs) dimers are formed that are able to regulate the expression of genes involved in growth and differentiation. We compared the metabolism and level of growth inhibition of 13cRA with that of ATRA, 9cRA and retinol in four HNSCC cell lines and normal oral keratinocyte cultures (OKC).

CYP26 = test system: CYP26; parameters: method as in Sonneveld et al, 1998; conditions: ref Sonneveld et al, 1998; cited from earlier work
UM-SCC-35R = assay: Retinoid metabolism / turnover rate, HPLC; parameters: Metabolites Medium: dose or concentration left out as unconfirmed; conditions: for Metabolism (turnover rate) Mean: 24 h
Source text: as §1

[1] = test system: normal oral keratinocyte cultures (OKC); assay: Retinoid metabolism / turnover rate, HPLC; parameters: Metabolites Medium: dose or concentration left out as unconfirmed
Source text: as §1

UM-SCC-22A = assay: Retinoid metabolism / turnover rate, HPLC; parameters: Metabolites Medium: dose or concentration left out as unconfirmed; conditions: for Metabolism (turnover rate) Mean: 24 h; for Metabolites Medium: UM-SCC-22A medium
Source text: as §1

UM-SCC-14C = assay: Retinoid metabolism / turnover rate, HPLC; parameters: Metabolites Medium: dose or concentration left out as unconfirmed; conditions: for Metabolism (turnover rate) Mean: 24 h; for Metabolites Medium: UM-SCC-14C medium
Source text: as §1

[2] = 72 h exposure, 1 mM retinoid, HPLC
[3] = OKC, exposed, decrease in medium and cells between 4 and 24 h

| SMILES | Metabolism (turnover rate) Mean (UM-SCC-35; human, 24 h, 1 µM) | Metabolism by CYP26 (CYP26) | Metabolism (turnover rate) Mean (UM-SCC-35R; human, 1 µM) | Isomerization to other RA isomers ([1]; human, 1 µM) | Metabolism (turnover rate) Mean ([1]; human, 24 h, 1 µM) | Isomerization to other RA isomers (UM-SCC-22A; human, 1 µM) | Metabolism (turnover rate) Mean (UM-SCC-22A; human, 1 µM) | Isomerization to other RA isomers (UM-SCC-14C; human, 1 µM) | Metabolism (turnover rate) Mean (UM-SCC-14C; human, 1 µM) | Metabolites Pellet (UM-SCC-35; [2]) | Metabolism (turnover rate) Mean [1, 3] | Metabolites Medium (UM-SCC-22A; 72 h exposure, HPLC) | Metabolites Medium (UM-SCC-14C; 72 h exposure, HPLC) | further results |
| --- | --- | --- | --- | --- | --- | --- | --- | --- | --- | --- | --- | --- | --- | --- |
| CC1=C(/C=C/C(C)=C/C=C/C(C)=C/C(=O)O)C(C)(C)CCC1 [ATRA, all-trans-retinoic acid] | 1,016.0 pmol per mg protein per hour | highly substrate (ATRA) specific | 52.7 pmol per mg protein per hour | up to 10% | 14.8 pmol per mg protein per hour | up to 10% | 104.8 pmol per mg protein per hour | up to 10% | 13.3 pmol per mg protein per hour | – | – | – | – | Proportion of leukoplakia patients in whom active (oral leukoplakia): 59%; Major metabolite (UM-SCC-35; human, 24 h, 1 µM): 4-OH-RA |
| CC1=C(/C=C/C(C)=C/C=C/C(C)=C/CO)C(C)(C)CCC1 [ROL, retinol] | – | – | – | – | – | – | – | – | – | c1 | 98.7 pmol per mg protein per hour | d1 | d1 | Formation of other retinoids after exposure (UM-SCC-35; UM-SCC-35): no or very small amounts of other retinoids; Formation of other retinoids after exposure (UM-SCC-35R; UM-SCC-35R): no or very small amounts of other retinoids; Metabolites Pellet ([1]; OKC cell pellet, 72 h exposure, HPLC): d1; Metabolites Medium ([1]; OKC medium, 72 h exposure, HPLC): d1; Metabolites Pellet (UM-SCC-22A; UM-SCC-22A cell pellet, 72 h exposure, HPLC): d1; Formation of ATRA after exposure (UM-SCC-14C; UM-SCC-14C): relatively high formation of ATRA; Metabolites Pellet (UM-SCC-14C; UM-SCC-14C cell pellet, 72 h exposure, HPLC): d1 |
| CC1=C(/C=C/C(C)=C/C=C/C(C)=C\C(=O)O)C(C)(C)CCC1 [13cRA, 13-cis-retinoic acid] | 949.5 pmol per mg protein per hour | can not metabolize | 6.9 pmol per mg protein per hour | up to 10% | 38.8 pmol per mg protein per hour | up to 10% | 154.1 pmol per mg protein per hour | up to 10% | 78.7 pmol per mg protein per hour | – | – | – | – | Metabolites Pellet (UM-SCC-35R; human, 72 h, 1 µM): b,d2; Metabolites Pellet ([1]; human, 72 h, 1 µM): d2; Metabolites Pellet (UM-SCC-22A; human, 72 h, 1 µM): d2; Metabolites Pellet (UM-SCC-14C; human, 72 h, 1 µM): d2 |
| CC1=C(/C=C/C(C)=C\C=C\C(C)=C\C(=O)O)C(C)(C)CCC1 [9cRA, 9-cis-RA] | – | can not metabolize | – | – | – | – | – | – | – | b (between 10 and 15 min) | 12.0 pmol per mg protein per hour | a,b | a,b | Metabolites Medium (UM-SCC-35; UM-SCC-35 medium, 72 h exposure, 1 mM retinoid, HPLC): a,b,c; Metabolites Pellet (UM-SCC-35R; UM-SCC-35R cell pellet, 72 h exposure, HPLC): b (between 10 and 15 min); Metabolites Medium (UM-SCC-35R; UM-SCC-35R medium, 72 h exposure, HPLC): a,b; Isomerization to other RA isomers ([1]; OKC, ATRA to 13cRA, 13cRA to ATRA, 9cRA to ATRA and 13cRA): up to 5%; Isomerization to other RA isomers (UM-SCC-22A; UM-SCC-22A, ATRA to 13cRA, 13cRA to ATRA, 9cRA to ATRA and 13cRA): up to 5%; Isomerization to other RA isomers (UM-SCC-14C; UM-SCC-14C, ATRA to 13cRA, 13cRA to ATRA, 9cRA to ATRA and 13cRA): up to 5% |
